We go through one compound from US12707803B2, “Light-emitting device” (Semiconductor Energy Laboratory Co., Ltd., priority 2022, dated 2026).

The data set is described as follows: water solubility of materials added to electron-injection buffer region. The format is physicochemical. From the text: The table below lists the number of hydrophilic hpp groups, the number of hydrophobic tert-butyl groups, and water solubility of the materials added to the electron-injection buffer regions 914 in the light-emitting devices 7A to 7K.

For orientation: solubility means the dissolved amount per volume that the medium holds. High values mean a readily soluble substance, low ones a poorly soluble substance.

In brackets after ≈: the same amount, converted by molar mass.

On to `CC(C)(C)c1ccc2c(c1)C1(c3cc(N4CCCN5CCCN=C54)ccc3-c3ccc(N4CCCN5CCCN=C54)cc31)c1cc(C(C)(C)C)ccc1-2` [2′,7′tBu-2,7hpp2SF, 1,1′-(2′,7′-di-tert-butyl-9,9′-spirobi[9H-fluorene]-2,7-diyl)bis(1,3,4,6,7,8-hexahydro-2H-pyrimido[1,2-a]pyrimidine)], for which the solubility fell in the range of 58 to 62 µg/mL (≈ 82.5 to 88.2 µM).
